Experimental data: patent US6750348B1, “Chemokine receptor binding heterocyclic compounds” (AnorMED, Inc., priority 1999, dated 2004)

What was measured:
Type in all cases: cell-based
[1] = test system: SDF-1α induced Ca flux in SUP-T1 cells; test: Inhibition of SDF-1α induced Ca flux in SUP-T1 cells (FLIPR); details: Homo sapiens, at 20 μg/mL, read-out: inhibited SDF-1α induced Ca flux
Procedure: (§1) Loading dye: Fluo-3, AM (Molecular Probes F-1241) is dissolved in anhydrous DMSO and stored frozen in aliquots. To increase the solubility of the dye in the loading medium, 10% (w/v) pluronic acid (Molecular Probes F-127) is added to the Fluo-3 stock solution immediately before use.
(§2) HBSS+20 mM Hepes buffer+0.2% BSA, pH 7.4. HBSS 10× [(w/o phenol red and sodium bicarbonate (Gibco 14 065-049)]; Hepes buffer 1M (Gibco 15 630-056), BSA (Sigma A3675). The flux buffer is vacuum-filtered and stored refrigerated for a maximum of 5 days. Before use in the experiment, the buffer is warmed at 37° C. in a waterbath.
(§3) The test compounds were diluted in flux buffer and added to 4 wells of a black microplate (4 parallel measurements per compound).
(§4) The chemokines are diluted in flux buffer to concentrations that are 4-fold higher than the desired concentrations required for stimulation of the cells (i.e. 2.5 nM for SDF-1α and 0.6 nM for RANTES). The chemokines were added to untreated 96-well Sero well compound plates (International Medical, Sterilin code 611F96). In the negative control well's (baseline monitoring), flux buffer is added instead of chemokine. As a positive control to check for dye loading efficiency, 20 μM digitonin (final concentration) was also included. The agonist plate was incubated in the FLIPR (37° C.) for 15-30 min.
SUP-T1 cells were centrifuged at room temperature (RT) and re-suspended in loading medium (RPMI-1640 containing 2% FBS and 4 μM Fluo-3, AM). The cells were incubate at room temperature for 45 min. then washed twice in flux buffer then incubated in flux buffer at room temperature for 10 min. The cells were centrifuged and re-suspended in flux buffer at a density of 3×10^6 cells per mL. […] The microplate is then gently centrifuged at room temperature. Homogeneous spreading of the cells on the bottom of the microplate wells was then confirmed with a microscope and the microplate was incubated in the FLIPR (37° C.) for 10 min. prior to testing.
(§5) The FLIPR settings (camera exposure time and laser power) are adjusted to obtain initial fluorescence values between 8,000 and 10,000 units. After monitoring a 20 second-baseline, the agonist (chemokine) (50 μL) is added by automatic pipettor with black pipette tips. Fluorescence is measured simultaneously in all wells of the microplate every 2 seconds (first 2 min) and thereafter every 6 seconds (additional 2 min). The average ca-flux measured in each set of 4 identical wells (one test compound) was calculated by the FLIPR software.
The compounds of the current invention were tested for inhibition of SDF-1α induced Ca flux in SUP-T1 cells using the method described above.

HIV-1 NL4.3 or IIIB = test: Inhibition of HIV-1 (NL4.3 or IIIB) replication in MT-4 cells (MTT); details: Human immunodeficiency virus 1, IIIB, MT4, read-out: EC50, inhibition of HIV-1 NL4.3 or IIIB replication
In short: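 CXCR4-tropic virus infected MT-4 cells at MOI 0.01 (100× CCID50) across a range of compound concentrations, with cytotoxicity run in parallel. Viable cells counted by MTT after 5 days. EC50 is the concentration protecting 50% of infected cells from viral cytopathicity.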

HIV-1 BaL (CCR5 using) = test: Inhibition of HIV-1 (BaL) replication in PHA-stimulated PBMC's (MTT); details: Human immunodeficiency virus 1, BAL, MTT assay
Procedure: Compounds were tested for their ability to inhibit HIV-1 replication in MT-4 cells or PBMC's (peripheral blood mononucleocytes) using published procedures (for example, see: Labrosse et al. J. Virol. 1998, 6381-6388; Simmons et al. J. Virol. 1998, 8453-8457; Donzella et al. Nature Medicine 1998, 72-77; Schols et al. J. Exp. Med. 1997, 1383-1388; De Clercq et al. Antiviral Res. 1997, 147-156; and Bridger et al. U.S. patent application Ser. No. 09/111,895). In addition to the above references, experimental methods for performing anti-viral assays can also be found in: Bridger et al. J. Med. Chem. 1995, 38, 366-378; Bridger et al. J. Med. Chem. 1996, 39, 109-119; Bridger et al. U.S. Pat. No. 5,698,546; Bridger et al. U.S. Pat. No. 5,583,131; Bridger et al. U.S. Pat. No. 5,817,807; De Clercq et al. Antimicrob. Agents and Chemother. 1994, 38, 668-674.
The HIV-1 strain BaL is M-tropic (macrophage tropic) strain that exclusively uses CCR5 as a co-receptor for entry into cells. PBMC's (from healthy donors) express all chemokine receptors including CXCR4 and CCR5.

[2] = test system: RANTES induced Ca flux in U87.CCR5 cells; test: Inhibition of RANTES induced Ca flux in U87.CCR5 cells (FLIPR); details: U-87-CCR5, at 20 μg/mL, read-out: inhibited RANTES induced Ca flux
Procedure: as §1, §2, §3, §4, §5
U87.CCR5 cells were seeded into the black microplates (Costar 3603) on the day before the experiment. The culture medium was removed from the cells and 100 μL of loading medium (DMEM+10% FBS+4 μM Fluo-3, AM) was added to each well and the plate was incubate at 37° C. for 45 min. The loading medium was then removed an the cells were washed twice with flux buffer using the CELL WASH microplate washer (Labsystems) followed by incubation in flux buffer for 10 min. at room temperature (the washing procedure was repeated twice). Finally, the wash buffer was removed from the microplate wells and 150 μL of the test compound, diluted in flux buffer to the desired concentration. The microplate was then incubated in the FLIPR drawer for 10 min. prior to testing. Measurements were performed as described above.
The compounds of the current invention were tested for inhibition of RANTES induced Ca flux in U87.CCR5 cells.

## c1ccc(-c2ccc3c(n2)C(N(Cc2ccc(CNCc4ccccn4)cc2)Cc2ccccn2)CCC3)cc1 (stereo not shown) [Example 12, N,N′-bis(2-pyridinylmethyl)-N′-(2-phenyl-5,6,7,8-tetrahydro-8-quinolinyl)-1,4-benzenedimethanamine]
[1]
  inhibition at 20 µg/mL: > 20%
HIV-1 NL4.3 or IIIB
  EC50: < 20 µg/mL
HIV-1 BaL (CCR5 using)
  EC50: < 20 µg/mL

## c1ccc(CNCc2ccc(CNC3CCCc4ncccc43)cc2)nc1 (stereo not shown) [Example 13, N-(2-pyridinylmethyl)-N′-(5,6,7,8-tetrahydro-5-quinolinyl)-1,4-benzenedimethanamine]
HIV-1 NL4.3 or IIIB
  EC50: < 20 µg/mL
HIV-1 BaL (CCR5 using)
  EC50: < 20 µg/mL

## c1ccc(CNCc2ccc(CN(Cc3ncc[nH]3)C3CCCc4ncccc43)cc2)nc1 (stereo not shown) [Example 14, N-(2-pyridinylmethyl)-N′-(1H-imidazol-2-ylmethyl)-N′-(5,6,7,8-tetrahydro-5-quinolinyl)-1,4-benzenedimethanamine]
HIV-1 NL4.3 or IIIB
  EC50: < 20 µg/mL
HIV-1 BaL (CCR5 using)
  EC50: < 20 µg/mL

## c1ccc(CNCc2ccc(CN(Cc3c[nH]cn3)C3CCCc4cccnc43)cc2)nc1 (stereo not shown) [Example 17, N-(2-pyridinylmethyl)-N′-(1H-imidazol-4-ylmethyl)-N′-(5,6,7,8-tetrahydro-8-quinolinyl)-1,4-benzenedimethanamine]
[1]
  inhibition at 20 µg/mL: > 20%
HIV-1 NL4.3 or IIIB
  EC50: < 20 µg/mL
HIV-1 BaL (CCR5 using)
  EC50: < 20 µg/mL

## c1ccc(CNCc2ccc(CN(CCCNCc3ccc4ccccc4c3)C3CCCc4cccnc43)cc2)nc1 (stereo not shown) [Example 22, N-(2-pyridinylmethyl)-N′-[3-((2-naphthalenylmethyl)amino)propyl]-N′-(5,6,7,8-tetrahydro-8-quinolinyl)-1,4-benzenedimethanamine]
[1]
  inhibition at 20 µg/mL: > 20%
[2]
  inhibition at 20 µg/mL: > 20%

## c1ccc(CNCc2ccc(CN(C3CCNC3)C3CCCc4cccnc43)cc2)nc1 (stereo not shown) [Example 32, N-(2-pyridinylmethyl)-N′-3-pyrrolidinyl-N′-(5,6,7,8-tetrahydro-8-quinolinyl)-1,4-benzenedimethanamine]
HIV-1 NL4.3 or IIIB
  EC50: < 20 µg/mL
HIV-1 BaL (CCR5 using)
  EC50: < 20 µg/mL

## c1ccc(CNCc2ccc(CN(C3CCNCC3)C3CCCc4cccnc43)cc2)nc1 (stereo not shown) [Example 33, N-(2-pyridinylmethyl)-N′-4-piperidinyl-N′-(5,6,7,8-tetrahydro-8-quinolinyl)-1,4-benzenedimethanamine]
HIV-1 NL4.3 or IIIB
  EC50: < 20 µg/mL
HIV-1 BaL (CCR5 using)
  EC50: < 20 µg/mL

## c1ccc(NCCN(Cc2ccc(CNCc3ccccn3)cc2)C2CCCc3cccnc32)cc1 (stereo not shown) [Example 34, N-(2-pyridinylmethyl)-N′-[2-[(phenyl)amino]ethyl]-N′-(5,6,7,8-tetrahydro-8-quinolinyl)-1,4-benzenedimethanamine]
HIV-1 NL4.3 or IIIB
  EC50: < 20 µg/mL
HIV-1 BaL (CCR5 using)
  EC50: < 20 µg/mL

## COc1ccc2c(c1)CCC(NCc1ccc(CNCc3ccccn3)cc1)C2 (stereo not shown) [Example 36, N-(2-pyridinylmethyl)-N′-(6-methoxy-1,2,3,4-tetrahydro-2-naphthalenyl)-1,4-benzenedimethanamine]
HIV-1 NL4.3 or IIIB
  EC50: < 20 µg/mL
HIV-1 BaL (CCR5 using)
  EC50: < 20 µg/mL

## Oc1cccc2c1CC(N(Cc1ccc(CNCc3ccccn3)cc1)Cc1ncc[nH]1)CC2 (stereo not shown) [Example 42, N-(2-pyridinylmethyl)-N′-(1H-imidazol-2-ylmethyl)-N′-(8-hydroxy-1,2,3,4-tetrahydro-2-naphthalenyl)-1,4-benzenedimethanamine]
HIV-1 NL4.3 or IIIB
  EC50: < 20 µg/mL
HIV-1 BaL (CCR5 using)
  EC50: < 20 µg/mL

## Fc1cccc2c1CC(N(Cc1ccc(CNCc3ccccn3)cc1)Cc1ncc[nH]1)CC2 (stereo not shown) [Example 44, N-(2-pyridinylmethyl)-N′-(1H-imidazol-2-ylmethyl)-N′-(8-Fluoro-1,2,3,4-tetrahydro-2-naphthalenyl)-1,4-benzenedimethanamine]
[2]
  inhibition at 20 µg/mL: > 20%
HIV-1 NL4.3 or IIIB
  EC50: < 20 µg/mL

## c1ccc(CNCc2ccc(CN(CCNCc3ccc4ccccc4c3)C3CCCc4cccnc43)cc2)nc1 (stereo not shown) [Example 47, N-(2-pyridinylmethyl)-N′-[2-[(2-naphthalenylmethyl)amino]ethyl]-N′-(5,6,7,8-tetrahydro-8-quinolinyl)-1,4-benzenedimethanamine]
[1]
  inhibition at 20 µg/mL: > 20%
[2]
  inhibition at 20 µg/mL: > 20%
HIV-1 NL4.3 or IIIB
  EC50: < 20 µg/mL

## c1ccc(CNCCN(Cc2ccc(CNCc3ccccn3)cc2)C2CCCc3cccnc32)nc1 (stereo not shown) [Example 49, N-(2-pyridinylmethyl)-N′-[2-[(2-pyridinylmethyl)amino]ethyl]-N′-(5,6,7,8-tetrahydro-8-quinolinyl)-1,4-benzenedimethanamine]
[1]
  inhibition at 20 µg/mL: > 20%
[2]
  inhibition at 20 µg/mL: > 20%
HIV-1 NL4.3 or IIIB
  EC50: < 20 µg/mL

## c1ccc(CNCc2ccc(CN(CCNCc3ccco3)C3CCCc4cccnc43)cc2)nc1 (stereo not shown) [Example 50, N-(2-pyridinylmethyl)-N′-[2-[(2-furanylmethyl)amino]ethyl]-N′-(5,6,7,8-tetrahydro-8-quinolinyl)-1,4-benzenedimethanamine]
[1]
  inhibition at 20 µg/mL: > 20%
[2]
  inhibition at 20 µg/mL: > 20%
HIV-1 NL4.3 or IIIB
  EC50: < 20 µg/mL

## c1ccc(CNCc2ccc(CN(c3nc4ccccc4o3)C3CCCc4cccnc43)cc2)nc1 (stereo not shown) [Example 67, N-(2-pyridinylmethyl)-N′-(2-benzoxazolyl)-N′-(5,6,7,8-tetrahydro-8-quinolinyl)-1,4-benzenedimethanamine]
[2]
  inhibition at 20 µg/mL: > 20%
HIV-1 NL4.3 or IIIB
  EC50: < 20 µg/mL

## C[C@H](N)C(=O)N(Cc1ccc(CNCc2ccccn2)cc1)C1CCCc2cccnc21 (stereo partly shown) [Example 73, N-[[4-[[(2-pyridinylmethyl)amino]methyl]phenyl]methyl]-N-(5,6,7,8-tetrahydro-8-quinolinyl)-(L)-alaninamide]
[1]
  inhibition at 20 µg/mL: > 20%
[2]
  inhibition at 20 µg/mL: > 20%

## O=C([C@@H]1CCCN1)N(Cc1ccc(CNCc2ccccn2)cc1)C1CCCc2cccnc21 (stereo partly shown) [Example 76, N-[[4-[[(2-pyridinylmethyl)amino]methyl]phenyl]methyl]-N-(5,6,7,8-tetrahydro-8-quinolinyl)-(L)-prolinamide]
[1]
  inhibition at 20 µg/mL: > 20%
[2]
  inhibition at 20 µg/mL: > 20%

## NCCCC[C@H](N)C(=O)N(Cc1ccc(CNCc2ccccn2)cc1)C1CCCc2cccnc21 (stereo partly shown) [Example 77, N-[[4-[[(2-pyridinylmethyl)amino]methyl]phenyl]methyl]-N-(5,6,7,8-tetrahydro-8-quinolinyl)-(L)-lysinamide]
[1]
  inhibition at 20 µg/mL: > 20%
[2]
  inhibition at 20 µg/mL: > 20%

## COc1ccc(CCN(Cc2ccc(CNC3CCCc4cccnc43)cc2)Cc2ccccn2)cc1 (stereo not shown) [Example 91, N-(2-pyridinylmethyl)-N-[2-(4-methoxyphenyl)ethyl]-N′-(5,6,7,8-tetrahydro-8-quinolinyl)-1,4-benzenedimethanamine]
HIV-1 NL4.3 or IIIB
  EC50: < 20 µg/mL
HIV-1 BaL (CCR5 using)
  EC50: < 20 µg/mL
